# Assays:
# Test in all cases: -log10 GI50 (growth inhibition 50%) (-log10(M)); higher = more potent growth inhibition
# MCF12A = system: MCF12A
# How it was run: (§1)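 Breast cancer cell lines were exposed to each compound for 72 hours at nine doses in 1:5 serial dilution, in triplicate, with a luminescence read-out against a time-zero plate. A Gompertz curve was fitted to the dose-response data by nonlinear least squares. The value is minus log10 of GI50, the molar concentration giving the set level of growth inhibition. Values equal to the top dose carry a < qualifier.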
# BT483 = system: BT483
# How it was run: as §1
# MDAMB415 = system: MDAMB415
# How it was run: as §1
# MDAMB361 = system: MDAMB361
# How it was run: as §1
# SUM149PT = system: SUM149PT
# How it was run: as §1
# SUM229PE = system: SUM229PE
# How it was run: as §1
# SKBR3 = system: SKBR3
# How it was run: as §1
# SUM159PT = system: SUM159PT
# How it was run: as §1
# MCF10F = system: MCF10F
# How it was run: as §1
# HS578T = system: HS578T
# How it was run: as §1
# LY2 = system: LY2
# How it was run: as §1
# MDAMB175VII = system: MDAMB175VII
# How it was run: as §1
# 184A1 = system: 184A1
# How it was run: as §1
# HCC1954 = system: HCC1954
# How it was run: as §1
# HCC1187 = system: HCC1187
# How it was run: as §1
# T47D = system: T47D
# How it was run: as §1
# MDAMB231 = system: MDAMB231
# How it was run: as §1
# HCC70 = system: HCC70
# How it was run: as §1
# UACC812 = system: UACC812
# How it was run: as §1
# HCC38 = system: HCC38
# How it was run: as §1
Structure (SMILES),-log10 GI50 (MCF12A),-log10 GI50 (BT483),-log10 GI50 (MDAMB415),-log10 GI50 (MDAMB361),-log10 GI50 (SUM149PT),-log10 GI50 (SUM229PE),-log10 GI50 (SKBR3),-log10 GI50 (SUM159PT),-log10 GI50 (MCF10F),-log10 GI50 (HS578T),-log10 GI50 (LY2),-log10 GI50 (MDAMB175VII),-log10 GI50 (184A1),-log10 GI50 (HCC1954),-log10 GI50 (HCC1187),-log10 GI50 (T47D),-log10 GI50 (MDAMB231),-log10 GI50 (HCC70),-log10 GI50 (UACC812),-log10 GI50 (HCC38)
C[C@]12O[C@H](C[C@]1(O)CO)n1c3ccccc3c3c4c(c5c6ccccc6n2c5c31)CNC4=O [Lestaurtinib],6.33,6.21,6.46,6.45,7.12,6.48,6,6.55,5.72,5.99,6.6,6.09,5.87,5.31,6.13,5.25,6.14,6.71,5.75,7.06
COc1ccc(C2=N[C@@H](c3ccc(Cl)cc3)[C@@H](c3ccc(Cl)cc3)N2C(=O)N2CCNC(=O)C2)c(OC(C)C)c1 [Nutlin 3a],5.82,5.19,4.46,4.18,4.56,4.63,4.33,4.78,5.18,< 4.18,5.29,5.23,5.46,4.76,4.78,4.51,< 4.18,4.73,5.45,4.67
COc1cccc(-c2cc(=O)c3ccccc3o2)c1N,< 4.3,4.52,4.6,4.3,4.66,< 4.3,4.73,4.03,< 4.3,< 4.3,< 4.3,4.85,< 4.3,< 4.3,5.39,< 4.3,< 4.3,< 4.3,4.65,4.29
COc1ncc(-c2ccc3nccc(-c4ccnnc4)c3c2)cc1NS(=O)(=O)c1ccc(F)cc1F,8.09,8.94,5.86,8.82,7.64,8.59,8.41,7.63,8.67,7.13,7.94,8.73,8.77,8.04,8.3,8.45,6.37,8.13,8.49,7.61
CCn1cc(-c2ccnc3[nH]c(-c4cccc(CN(C)C)c4)cc23)c(-c2ccc(NC(=O)N(C)C)cc2)n1,5.22,5.35,5.76,5.22,5.55,6.33,5.29,5.77,5.69,6.42,5.03,5.07,6.1,5.57,7.95,5.36,5.47,6.58,5.07,6.53
CCNCCCNC/C=C\CNCCCNCC,< 4,3.27,4.17,3.15,4.55,4.33,3.51,4.03,3.76,4.54,2.9,3.21,3.2,6.52,3.16,5.67,4.75,5.9,3.47,5.26
Cn1c(=O)n(-c2ccc(C(C)(C)C#N)cc2)c2c3cc(-c4cnc5ccccc5c4)ccc3ncc21 [BEZ235],6.33,5.87,6.79,6.68,6.5,6.67,< 4.48,7.44,< 4.48,< 4.48,6.8,6.46,7.19,7.28,< 4.48,6.55,< 4.48,6.8,5.69,< 4.48
N#Cc1c(-c2ccccc2)cc(-c2cc(Br)ccc2O)[nH]c1=O [TCS PIM-11],4.36,< 3.88,< 3.88,< 3.88,4.49,4.57,< 3.88,4.46,< 3.88,< 4.18,< 3.88,< 3.88,5.16,4.52,4.42,< 4.18,< 3.88,4.47,< 3.88,3.95
O=C(O)C1(C(=O)O)CCC1.[NH2-].[NH2-].[Pt+2] [Carboplatin],4.05,5.82,3.79,4.34,4.82,4.27,5,4.55,4.41,4.1,4.34,4.44,4.9,4.42,4.66,4.02,4.09,4.82,4.76,4.76
O=S(=O)(CC1CS1)c1ccc(Oc2ccccc2)cc1 (stereo not given) [SB-3CT],< 3.78,4.59,4.77,< 3.78,4.27,< 4,< 4,4.85,< 4,4.42,< 4,< 4,< 3.78,< 4,4.83,< 4,< 3.78,< 3.78,< 4,4.31
O=c1[nH]c2ccccc2n1C1CCN(Cc2ccc(-c3[nH]c4cc5ncnc5cc4nc3-c3ccccc3)cc2)CC1 [Akt inhibitor VIII],5.01,6.2,5.7,6.06,4.96,4.94,5.68,5.12,5.42,4.89,5.85,5.75,5.58,5.08,5.43,5.78,4.82,5.74,5.45,4.9
